Each block holds one molecule with its values, some of them ahead of it.
Tests used:
[1] = Biodistribution in heart of OF1 mouse at 231 kBq, iv administered as C14-lableled compound and assessed as radioactivity and measured at 1 hr post dose by digital autoradiographic analysis; type: ADME, organism-based; settings: in vivo
[2] = Biodistribution in lungs of nude mouse xenografted with human MCF7 cells at 231 kBq, iv administered as C14-lableled compound and assessed as radioactivity and measured at 3 hrs post dose by digital autoradiographic analysis; type: ADME, organism-based, Lung; settings: in vivo
[3] = Biodistribution in heart of nude mouse xenografted with human MCF7 cells at 231 kBq, iv administered as C14-lableled compound and assessed as radioactivity and measured at 3 hrs post dose by digital autoradiographic analysis; type: ADME, organism-based; settings: in vivo
[4] = Biodistribution in spleen of OF1 mouse at 231 kBq, iv administered as C14-lableled compound and assessed as radioactivity and measured at 1 hr post dose by digital autoradiographic analysis; type: ADME, organism-based; settings: in vivo
[5] = Biodistribution in spleen of nude mouse xenografted with human MCF7 cells at 231 kBq, iv administered as C14-lableled compound and assessed as radioactivity and measured at 3 hrs post dose by digital autoradiographic analysis; type: ADME, organism-based; settings: in vivo
[6] = Biodistribution in stomach of OF1 mouse at 231 kBq, iv administered as C14-lableled compound and assessed as radioactivity and measured at 1 hr post dose by digital autoradiographic analysis; type: ADME, organism-based; settings: in vivo
[7] = Biodistribution in kidney of nude mouse xenografted with human MCF7 cells at 231 kBq, iv administered as C14-lableled compound and assessed as radioactivity and measured at 3 hrs post dose by digital autoradiographic analysis; type: ADME, organism-based; settings: in vivo
[8] = Biodistribution in brain of nude mouse xenografted with human MCF7 cells at 231 kBq, iv administered as C14-lableled compound and assessed as radioactivity and measured at 3 hrs post dose by digital autoradiographic analysis; type: ADME, organism-based; settings: in vivo
[9] = Drug excretion in OF1 mouse urine at 231 kBq, iv administered as C14-lableled compound and assessed as radioactivity and measured at 3 to 6 hrs post dose; type: ADME, organism-based; settings: in vivo, time 3-6 hrs
[10] = Drug excretion in OF1 mouse feces at 231 kBq, iv administered as C14-lableled compound and assessed as radioactivity and measured at 3 to 6 hrs post dose; type: ADME, organism-based; settings: in vivo, time 3-6 hrs
[11] = Biodistribution in liver of OF1 mouse at 231 kBq, iv administered as C14-lableled compound and assessed as radioactivity and measured at 1 hr post dose by digital autoradiographic analysis; type: ADME, organism-based; settings: in vivo
[12] = Biodistribution in muscle of nude mouse xenografted with human MCF7 cells at 231 kBq, iv administered as C14-lableled compound and assessed as radioactivity and measured at 3 hrs post dose by digital autoradiographic analysis; type: ADME, organism-based, Muscle tissue; settings: in vivo
[13] = Biodistribution in muscle of OF1 mouse at 231 kBq, iv administered as C14-lableled compound and assessed as radioactivity and measured at 1 hr post dose by digital autoradiographic analysis; type: ADME, organism-based, Muscle tissue; settings: in vivo
[14] = Biodistribution in lungs of OF1 mouse at 231 kBq, iv administered as C14-lableled compound and assessed as radioactivity and measured at 1 hr post dose by digital autoradiographic analysis; type: ADME, organism-based, Lung; settings: in vivo
[15] = Ratio of drug level in tumor to muscle in nude mouse xenografted with human MCF7 cells at 231 kBq, iv administered as C14-lableled compound and assessed as radioactivity and measured at 3 hrs post dose; type: ADME, organism-based; settings: in vivo
[16] = Biodistribution in kidney of OF1 mouse at 231 kBq, iv administered as C14-lableled compound and assessed as radioactivity and measured at 1 hr post dose by digital autoradiographic analysis; type: ADME, organism-based; settings: in vivo
[17] = Drug accumulation in tumor of nude mouse xenografted with human MCF7 cells intravenously at 231 kBq, iv administered as C14-lableled compound and assessed as radioactivity and measured at 1 hr post dose by digital autoradiographic analysis; type: ADME, organism-based, Neoplasm; settings: in vivo
[18] = Biodistribution in brain of OF1 mouse at 231 kBq, iv administered as C14-lableled compound and assessed as radioactivity and measured at 1 hr post dose by digital autoradiographic analysis; type: ADME, organism-based; settings: in vivo
[19] = Drug accumulation in tumor of nude mouse xenografted with human MCF7 cells at 231 kBq, iv administered as C14-lableled compound and assessed as radioactivity and measured at 3 hrs post dose by digital autoradiographic analysis; type: ADME, organism-based, Neoplasm; settings: in vivo
[20] = Ratio of drug level in tumor to muscle in nude mouse xenografted with human MCF7 cells at 231 kBq, iv administered as C14-lableled compound and assessed as radioactivity and measured at 1 hr post dose; type: ADME, organism-based; settings: in vivo
[21] = Biodistribution in stomach of nude mouse xenografted with human MCF7 cells at 231 kBq, iv administered as C14-lableled compound and assessed as radioactivity and measured at 3 hrs post dose by digital autoradiographic analysis; type: ADME, organism-based; settings: in vivo
[22] = Biodistribution in brain of nude mouse xenografted with human MCF7 cells at 292 kBq, iv administered as C14-lableled compound and assessed as radioactivity and measured at 6 hrs post dose by digital autoradiographic analysis; type: ADME, organism-based; settings: in vivo
[23] = Biodistribution in stomach of OF1 mouse at 292 kBq, iv administered as C14-lableled compound and assessed as radioactivity and measured at 1 hr post dose by digital autoradiographic analysis; type: ADME, organism-based; settings: in vivo
[24] = Biodistribution in spleen of nude mouse xenografted with human MCF7 cells at 292 kBq, iv administered as C14-lableled compound and assessed as radioactivity and measured at 6 hrs post dose by digital autoradiographic analysis; type: ADME, organism-based; settings: in vivo
[25] = Biodistribution in stomach of nude mouse xenografted with human MCF7 cells at 292 kBq, iv administered as C14-lableled compound and assessed as radioactivity and measured at 6 hrs post dose by digital autoradiographic analysis; type: ADME, organism-based; settings: in vivo
[26] = Biodistribution in heart of nude mouse xenografted with human MCF7 cells at 292 kBq, iv administered as C14-lableled compound and assessed as radioactivity and measured at 6 hrs post dose by digital autoradiographic analysis; type: ADME, organism-based; settings: in vivo
[27] = Biodistribution in muscle of nude mouse xenografted with human MCF7 cells at 292 kBq, iv administered as C14-lableled compound and assessed as radioactivity and measured at 6 hrs post dose by digital autoradiographic analysis; type: ADME, organism-based, Muscle tissue; settings: in vivo
[28] = Biodistribution in liver of OF1 mouse at 292 kBq, iv administered as C14-lableled compound and assessed as radioactivity and measured at 1 hr post dose by digital autoradiographic analysis; type: ADME, organism-based; settings: in vivo
[29] = Biodistribution in kidney of nude mouse xenografted with human MCF7 cells at 292 kBq, iv administered as C14-lableled compound and assessed as radioactivity and measured at 6 hrs post dose by digital autoradiographic analysis; type: ADME, organism-based; settings: in vivo
[30] = Biodistribution in lung of nude mouse xenografted with human MCF7 cells at 292 kBq, iv administered as C14-lableled compound and assessed as radioactivity and measured at 6 hrs post dose by digital autoradiographic analysis; type: ADME, organism-based; settings: in vivo
[31] = Biodistribution in kidney of OF1 mouse at 292 kBq, iv administered as C14-lableled compound and assessed as radioactivity and measured at 1 hr post dose by digital autoradiographic analysis; type: ADME, organism-based; settings: in vivo
[32] = Biodistribution in brain of OF1 mouse at 292 kBq, iv administered as C14-lableled compound and assessed as radioactivity and measured at 1 hr post dose by digital autoradiographic analysis; type: ADME, organism-based; settings: in vivo
[33] = Biodistribution in heart of OF1 mouse at 292 kBq, iv administered as C14-lableled compound and assessed as radioactivity and measured at 1 hr post dose by digital autoradiographic analysis; type: ADME, organism-based; settings: in vivo
[34] = Drug excretion in OF1 mouse feces at 292 kBq, iv administered as C14-lableled compound and assessed as radioactivity and measured at 3 to 6 hrs post dose; type: ADME, organism-based; settings: in vivo, time 3-6 hrs
[35] = Biodistribution in lungs of OF1 mouse at 292 kBq, iv administered as C14-lableled compound and assessed as radioactivity and measured at 1 hr post dose by digital autoradiographic analysis; type: ADME, organism-based, Lung; settings: in vivo
[36] = Drug excretion in OF1 mouse urine at 292 kBq, iv administered as C14-lableled compound and assessed as radioactivity and measured at 3 to 6 hrs post dose; type: ADME, organism-based; settings: in vivo, time 3-6 hrs
[37] = Biodistribution in muscle of OF1 mouse at 292 kBq, iv administered as C14-lableled compound and assessed as radioactivity and measured at 1 hr post dose by digital autoradiographic analysis; type: ADME, organism-based, Muscle tissue; settings: in vivo
[38] = Biodistribution in spleen of OF1 mouse at 292 kBq, iv administered as C14-lableled compound and assessed as radioactivity and measured at 1 hr post dose by digital autoradiographic analysis; type: ADME, organism-based; settings: in vivo

Drug uptake [1]: Active
Drug uptake [2]: Not Active
Drug uptake [3]: Not Active
Drug uptake [4]: Active
Drug uptake [5]: Not Active
Drug uptake [6]: Active
Drug uptake [7]: Not Active
Drug uptake [8]: Not Active
Drug excretion [9]: Active
Drug excretion [10]: Active
Drug uptake [11]: Active
Drug uptake [12]: Not Active
Drug uptake [13]: Active
Drug uptake [14]: Active
Ratio [15]: 2.5
Drug uptake [16]: Active
Drug uptake [17]: 1.6%
Drug uptake [18]: Active
Drug uptake [19]: 0.8%
Ratio [20]: 1.1
Drug uptake [21]: Not Active
Compound: CCCCN1CCN(c2ccc(S(=O)(=O)Oc3cc(OC)c(OC)c(OC)c3)cc2)[14C]1=O

Drug uptake [22]: Not Active
Drug uptake [23]: Active
Drug uptake [24]: Not Active
Drug uptake [25]: Not Active
Drug uptake [26]: Not Active
Drug uptake [27]: Not Active
Drug uptake [28]: Active
Drug uptake [29]: Not Active
Drug uptake [30]: Not Active
Drug uptake [31]: Active
Drug uptake [32]: Active
Drug uptake [33]: Active
Drug excretion [34]: Active
Drug uptake [35]: Active
Drug excretion [36]: Active
Drug uptake [37]: Active
Drug uptake [38]: Active
Compound: COc1cc(OS(=O)(=O)c2ccc(N3CCN[14C]3=O)cc2)cc(OC)c1OC
